Values quoted from earlier work as cited in patent US10722545B2, “Compound and method for treatment of movement disorders” (priority 2018, dated 2020).

Experiments:
[1] = system: rat cortical neuron cultures; conditions: for glutamate toxicity: isolated or synthetic cannabinoid; for NMDA, AMPA and kainate receptor mediated neurotoxicity: rat cortical neuron cultures, not affected by CB receptor antagonist
neurons = conditions: neuronal cultures
[2] = cyclic voltammetry and fenton reaction-based system
mice = conditions: oral administration
[3] = system: mutant hamster model of dystonia

Row | SMILES | protective capacity against glutamate toxicity, head to head with other antioxidants ([1]; compared with alpha-tocopherol and ascorbate) | glutamate toxicity [1] | NMDA, AMPA and kainate receptor mediated neurotoxicity [1] | hydroperoxide toxicity in neurons (neurons) | antioxidant activity [2] | inhibition of phenyl-p-benzoquinone-induced writhing (mice) | antidystonic effects [3]
1 | C=C(C)[C@@H]1CCC(C)=C[C@H]1c1c(O)cc(CCCCC)cc1O [CBD, cannabidiol] | superior to both alpha-tocopherol and ascorbate | prevented to some extent | reduced | reduce hydroperoxide toxicity | potent antioxidants | most effective | 
2 | CCCCCc1cc(O)c2c(c1)OC(C)(C)c1ccc(C)cc1-2 [CBN, cannabinol] |  |  |  |  |  | least effective | 
3 | CCCCCc1cc(O)c2c(c1)OC(C)(C)[C@@H]1CCC(C)=C[C@@H]21 (relative stereo) [THC, (-)-Δ9-trans-tetrahydrocannabinol] |  | prevented to some extent | reduced |  | potent antioxidants | least effective | 
4 | Cc1c(C(=O)c2cccc3ccccc23)c2cccc3c2n1[C@H](CN1CCOCC1)CO3 [WIN55,212-2] |  |  |  |  |  |  | produces antidystonic effects
